# Experimental data as given in US11987588B2, “Modulators of the beta-3 adrenergic receptor useful for the treatment or prevention of heart failure and disorders related thereto” (Arena Pharmaceuticals, Inc., priority 2017, dated 2024).
# Molecular target: Beta-3 Adrenergic Receptor (Homo sapiens (Human), UniProt P13945)
# Assay: Homogeneous Time-Resolved Fluorescence (HTRF) cAMP antagonist assay, IC50 determination
# Type: cell-based
# Conditions: CHO-K1 cells stably expressing recombinant receptor, isoproterenol at EC90
# Method in brief: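 CHO-K1 cells stably expressing receptor, 1500 cells/well, preincubated briefly with 10-point 5-fold compound series (top final typically 10 or 100 μM) in PBS with 1 mM IBMX, then challenged with isoproterenol at EC90 for 1 h at room temperature. cAMP read by HTRF against on-plate standard curve; IC50 from dose-response.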
# Chain of Beta-3 Adrenergic Receptor (P13945 whole entry, species assumed): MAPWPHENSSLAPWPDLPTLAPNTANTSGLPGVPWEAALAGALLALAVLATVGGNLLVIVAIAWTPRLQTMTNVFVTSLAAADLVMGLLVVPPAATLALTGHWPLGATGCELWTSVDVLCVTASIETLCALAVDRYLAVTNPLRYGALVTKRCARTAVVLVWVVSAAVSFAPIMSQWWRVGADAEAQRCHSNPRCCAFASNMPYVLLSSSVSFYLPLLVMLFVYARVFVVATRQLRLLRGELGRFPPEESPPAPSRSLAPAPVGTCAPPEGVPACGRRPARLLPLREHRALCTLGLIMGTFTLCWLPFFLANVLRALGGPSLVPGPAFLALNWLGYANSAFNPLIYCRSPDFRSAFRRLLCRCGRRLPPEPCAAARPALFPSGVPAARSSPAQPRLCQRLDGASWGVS
row,Structure (SMILES),IC50 [µM]
1,"CCNS(=O)(=O)c1cccc(OC[C@@H](O)CNC2COC3(CCN(S(=O)(=O)c4ccc5c(c4)CCCC5)CC3)C2)c1 (stereo partly drawn) [Compound 231, N-ethyl-3-((2S)-2-hydroxy-3-(8-(5,6,7,8-tetrahydronaphthalen-2-ylsulfonyl)-1-oxa-8-azaspiro[4.5]decan-3-ylamino)propoxy)benzenesulfonamide]",0.0726
2,"CNS(=O)(=O)c1cccc(OC[C@@H](O)CNC2COC3(CCN(S(=O)(=O)c4ccc(Cl)c5nonc45)CC3)C2)c1 (stereo partly drawn) [Compound 185, 3-((2S)-3-(8-(7-chlorobenzo[c][1,2,5]oxadiazol-4-ylsulfonyl)-1-oxa-8-azaspiro[4.5]decan-3-ylamino)-2-hydroxypropoxy)-N-methylbenzenesulfonamide]",0.00725
3,"CNS(=O)(=O)c1cccc(OC[C@@H](O)CNC2COC3(CCN(S(=O)(=O)Cc4ccccc4)CC3)C2)c1 (stereo partly drawn) [Compound 172, 3-((2S)-3-(8-(benzylsulfonyl)-1-oxa-8-azaspiro[4.5]decan-3-ylamino)-2-hydroxypropoxy)-N-methylbenzenesulfonamide]",0.0789
4,"CNS(=O)(=O)c1cccc(OC[C@@H](O)CNC2COC3(CCN(S(=O)(=O)c4cccc(-c5cccnc5)c4)CC3)C2)c1 (stereo partly drawn) [Compound 88, 3-((2S)-2-hydroxy-3-(8-(3-(pyridin-3-yl)phenylsulfonyl)-1-oxa-8-azaspiro[4.5]decan-3-ylamino)propoxy)-N-methylbenzenesulfonamide]",0.00982
5,"CNS(=O)(=O)c1cccc(OC[C@@H](O)CNC2COC3(CCN(S(=O)(=O)c4cccc(C)c4C)CC3)C2)c1 (stereo partly drawn) [Compound 265, 3-((2S)-3-(8-(2,3-dimethylphenylsulfonyl)-1-oxa-8-azaspiro[4.5]decan-3-ylamino)-2-hydroxypropoxy)-N-methylbenzenesulfonamide]",0.0288
6,"CN(C)S(=O)(=O)c1cccc(OC[C@@H](O)CNC2COC3(CCN(S(=O)(=O)c4cccc(-c5ccc(N)nc5)c4)CC3)C2)c1 (stereo partly drawn) [Compound 275, 3-((2S)-3-(8-(3-(6-aminopyridin-3-yl)phenylsulfonyl)-1-oxa-8-azaspiro[4.5]decan-3-ylamino)-2-hydroxypropoxy)-N,N-dimethylbenzenesulfonamide]",0.0213
7,"CNS(=O)(=O)c1cccc(OC[C@@H](O)CNC2COC3(CCN(S(=O)(=O)c4sc(-c5ccccc5)nc4C)CC3)C2)c1 (stereo partly drawn) [Compound 186, 3-((2S)-2-hydroxy-3-(8-(4-methyl-2-phenylthiazol-5-ylsulfonyl)-1-oxa-8-azaspiro[4.5]decan-3-ylamino)propoxy)-N-methylbenzenesulfonamide]",0.0157
8,"CNS(=O)(=O)c1cccc(OC[C@@H](O)CNC2COC3(CCN(S(=O)(=O)c4cccc(-c5ccsc5)c4)CC3)C2)c1 (stereo partly drawn) [Compound 66, 3-((2S)-2-hydroxy-3-(8-(3-(thiophen-3-yl)phenylsulfonyl)-1-oxa-8-azaspiro[4.5]decan-3-ylamino)propoxy)-N-methylbenzenesulfonamide]",0.0227
9,"CN(C)CCCNS(=O)(=O)c1cccc(OC[C@@H](O)CNC2COC3(CCN(S(=O)(=O)c4ccc5nsnc5c4)CC3)C2)c1 (stereo partly drawn) [Compound 312, 3-((2S)-3-(8-(benzo[c][1,2,5]thiadiazol-5-ylsulfonyl)-1-oxa-8-azaspiro[4.5]decan-3-ylamino)-2-hydroxypropoxy)-N-(3-(dimethylamino)propyl)benzenesulfonamide]",3.17
10,"CNS(=O)(=O)c1cccc(OC[C@@H](O)CNC2COC3(CCN(S(=O)(=O)c4ccc5[nH]c(=O)sc5c4)CC3)C2)c1 (stereo partly drawn) [Compound 58, 3-((2S)-2-hydroxy-3-(8-(2-oxo-2,3-dihydrobenzo[d]thiazol-6-ylsulfonyl)-1-oxa-8-azaspiro[4.5]decan-3-ylamino)propoxy)-N-methylbenzenesulfonamide]",0.043
11,"CNS(=O)(=O)c1cccc(OC[C@@H](O)CNC2COC3(CCN(S(=O)(=O)c4cccc(-c5ccc(S(N)(=O)=O)cc5)c4)CC3)C2)c1 (stereo partly drawn) [Compound 85, 3′-(3-((S)-2-hydroxy-3-(3-(N-methylsulfamoyl)phenoxy)propylamino)-1-oxa-8-azaspiro[4.5]decan-8-ylsulfonyl)biphenyl-4-sulfonamide]",0.00973
12,"CNS(=O)(=O)c1cccc(OC[C@@H](O)CNC2COC3(CCN(S(=O)(=O)c4c(C)nn(C)c4Cl)CC3)C2)c1 (stereo partly drawn) [Compound 163, 3-((2S)-3-(8-(5-chloro-1,3-dimethyl-1H-pyrazol-4-ylsulfonyl)-1-oxa-8-azaspiro[4.5]decan-3-ylamino)-2-hydroxypropoxy)-N-methylbenzenesulfonamide]",0.0641
13,"CNS(=O)(=O)c1cccc(OC[C@@H](O)CN[C@@H]2COC3(CCN(S(=O)(=O)c4cccc(-c5ccc(CN)cc5)c4)CC3)C2)c1 [Compound 288, 3-((S)-3-((S)-8-(4′-(aminomethyl)biphenyl-3-ylsulfonyl)-1-oxa-8-azaspiro[4.5]decan-3-ylamino)-2-hydroxypropoxy)-N-methylbenzenesulfonamide]",0.0134

# Other lines, results leading:
row,IC50 [µM],Structure (SMILES)
1,0.0102,"CCOc1ccc(-c2ccc(CN)cc2)cc1S(=O)(=O)N1CCC2(CC1)C[C@@H](NC[C@H](O)COc1cccc(S(=O)(=O)NC)c1)CO2 [Compound 420, 3-((S)-3-((R)-8-(4′-(aminomethyl)-4-ethoxybiphenyl-3-ylsulfonyl)-1-oxa-8-azaspiro[4.5]decan-3-ylamino)-2-hydroxypropoxy)-N-methylbenzenesulfonamide]"
2,0.0426,"CNS(=O)(=O)c1cccc(OC[C@@H](O)CNC2COC3(CCN(S(=O)(=O)c4cncc(-c5cnn(C)c5)c4)CC3)C2)c1 (stereo partly drawn) [Compound 342, 3-((2S)-2-hydroxy-3-(8-(5-(1-methyl-1H-pyrazol-4-yl)pyridin-3-ylsulfonyl)-1-oxa-8-azaspiro[4.5]decan-3-ylamino)propoxy)-N-methylbenzenesulfonamide]"
3,0.475,"CNS(=O)(=O)c1cccc(OC[C@@H](O)CNC2COC3(CCN(S(=O)(=O)c4cccc(CN)c4)CC3)C2)c1 (stereo partly drawn) [Compound 389, 3-((2S)-3-(8-(3-(aminomethyl)phenylsulfonyl)-1-oxa-8-azaspiro[4.5]decan-3-ylamino)-2-hydroxypropoxy)-N-methylbenzenesulfonamide]"
4,0.042,"CNS(=O)(=O)c1cccc(OC[C@@H](O)CNC2COC3(CCN(S(=O)(=O)c4cccc(-c5ccc(NCCN6CCOCC6)nc5)c4)CC3)C2)c1 (stereo partly drawn) [Compound 371, 3-((2S)-2-hydroxy-3-(8-(3-(6-(2-morpholinoethylamino)pyridin-3-yl)phenylsulfonyl)-1-oxa-8-azaspiro[4.5]decan-3-ylamino)propoxy)-N-methylbenzenesulfonamide]"
5,0.262,"CNS(=O)(=O)c1cccc(OC[C@@H](O)CN[C@H]2COC3(CCN(c4ncc(-c5ccccc5)cn4)CC3)C2)c1 [Compound 580, 3-((S)-2-hydroxy-3-((R)-8-(5-phenylpyrimidin-2-yl)-1-oxa-8-azaspiro[4.5]decan-3-ylamino)propoxy)-N-methylbenzenesulfonamide]"
6,0.0122,"CNS(=O)(=O)c1cccc(OC[C@@H](O)CN[C@@H]2COC3(CCN(S(=O)(=O)c4cc(OC)cc(-c5ccc(CN)cc5)c4)CC3)C2)c1 [Compound 449, 3-((S)-3-((S)-8-(4′-(aminomethyl)-5-methoxybiphenyl-3-ylsulfonyl)-1-oxa-8-azaspiro[4.5]decan-3-ylamino)-2-hydroxypropoxy)-N-methylbenzenesulfonamide]"
